Data reported in patent US9090874B2, “Olfactory epithelial-derived stem cells and methods of use therefor” (University of Louisville Research Foundation, Inc., priority 2008, dated 2015).

Test system: neurosphere subcultures
Experiment: Exposure of neurosphere subcultures to dibutyryl cAMP
Assay type: cell-based
Conditions: media containing 2.5 mM dibutyryl cAMP

Structure (SMILES): CCCC(=O)Nc1ncnc2c1ncn2[C@@H]1O[C@@H]2COP(=O)(O)O[C@H]2[C@H]1OC(=O)CCC [dibutyryl cAMP]
- levels of α-internexin: increases
- mitotic activity: drastically decreases
